Measured values reported in a compilation of properties of binary mixtures (doi:10.1021/ie501956x).

Test: xn = mol fraction of the nth substance listed
Settings: 101 kPa

CCO + CC(=O)[O-].CC[n+]1ccn(C)c1
x1 = 1
Settings	viscosity [mPa·s]
278.15 K	1.582
288.15 K	1.31
298.15 K	1.081
308.15 K	0.899
328.15 K	0.638

CC(=O)[O-].CC[n+]1ccn(C)c1 + CCO
viscosity [mPa·s]
Settings	x2 = 0	x2 = 0.1	x2 = 0.201	x2 = 0.2999	x2 = 0.4002	x2 = 0.5001	x2 = 0.6	x2 = 0.7	x2 = 0.8	x2 = 0.9
278.15 K	690	462	–	149.8	86.7	44.6	23.61	12.96	6.55	–
288.15 K	–	–	130.8	81.5	49.1	28.97	16.59	9.3	–	2.751
298.15 K	139	107.7	73.3	49.2	–	–	12.2	7.2	4.145	2.264
308.15 K	77.3	62.8	45.4	–	21.86	14.48	–	5.71	–	1.885
318.15 K	47.4	–	–	–	–	10.91	–	4.64	2.829	–
328.15 K	31.3	26.89	21	15.99	11.82	8.49	5.84	–	2.391	1.355
338.15 K	–	19.14	15.4	12.05	9.18	6.77	4.79	3.218	–	1.165
